From patent US9328138B2 (priority 2011, dated 2016)

Assays:
[1] = molecular target: T1, HCV genotype 1b (BK) NS3 modified enzyme with a R155K mutation (Hepatitis C virus genotype 1b, UniProt P26663, R1181K); assay: HCV NS3 protease time-resolved fluorescence (TRF) assay, genotype 1b R155K; format: biochemical; conditions: Ki 1b R155K
T1 construct: HCV genotype 1b (BK) NS3 modified enzyme
Procedure: (§1) The HCV NS3 protease inhibitory activity of the present compounds may be tested using assays known in the art. One such assay is HCV NS3 protease time-resolved fluorescence (TRF) assay as described below and in International Patent Application Publication No. WO2006/102087. Other examples of such assays are described in e.g., International Patent Application Publication No. WO2005/046712. The assay is performed in a final volume of 100 μl in assay buffer containing 50 mM HEPES, pH 7.5, 150 mM NaCl, 15% glycerol, 0.15% Triton X-100, 10 mM DTT, and 0.1% PEG 8000. NS3 protease is pre-incubated with various concentrations of inhibitors in DMSO for 30 minutes. The reaction is initiated by adding the TRF peptide substrate (final concentration 100 nM). NS3 mediated hydrolysis of the substrate is quenched after 1 hour at room temperature with 100 μl of 500 mM MES, pH 5.5. Product fluorescence is detected using either a VICTOR V2 or FUSION fluorophotometer (Perkin Elmer Life and Analytical Sciences) with excitation at 340 nm and emission at 615 nm with a 400 μs delay. Testing concentrations of different enzyme forms are selected to result in a signal to background ratio (S/B) of 10-30. IC50 values are derived using a standard four-parameter fit to the data. K; values are derived from IC50 values using the following formula, IC50=Ki(1+[S]/Km), Eqn (1), where [S] is the concentration of substrate peptide in the reaction and KM is the Michaelis constant. See Gallinari et al., 1999, Biochem. 38:5620-32; Gallinari et al., 1998, J. Virol. 72:6758-69; Taliani et al., 1996, Anal. Biochem. 240:60-67.
(§2) The HCV NS3 protease inhibitory activity was measured using the protease time-resolved fluorescence (TRF) assay as described below and in International Patent Application Publication No. WO 2006/102087. The assay was performed with HCV genotype 1b (BK) NS3 modified enzyme with a R155K mutation and genotype 3a (3A-1).
(§3) The assay was performed in a final volume of 50 μl in assay buffer containing 50 mM HEPES, pH 7.5, 150 mM NaCl, 15% glycerol, 0.15% TRITON X-100, 10 mM DTT, and 0.1% PEG 8000. NS3 and NS4A protease is pre-incubated with various concentrations of inhibitors in DMSO for 10 minutes. The reaction was initiated by adding the TRF peptide substrate (final concentration 25 nM) and NS3 mediated hydrolysis of the substrate proceeds for 6 hours at room temperature. Product fluorescence is detected using an Envision plate reader (Perkin Elmer) with excitation at 340 nm and emission at 615 nm with a 400 μs delay. Testing concentrations of the enzymes were selected to result in a signal to background ratio (S/B) of 5-20. IC50 values are derived using a standard four-parameter fit to the data.
(§4) NS3 and NS4A protease is pre-incubated with various concentrations of inhibitors in DMSO for 30 minutes. The reaction is initiated by adding the TRF peptide substrate (final concentration 100 nM). NS3 mediated hydrolysis of the substrate is quenched after 1 hour at room temperature with 100 μl of 500 mM MES, pH 5.5. Product fluorescence is detected using either a VICTOR V2 or FUSION fluorophotometer (Perkin Elmer Life and Analytical Sciences) with excitation at 340 nm and emission at 615 nm with a 400 μs delay. Testing concentrations of the enzymes are selected to result in a signal to background ratio (S/B) of 8-30. IC50 values are derived using a standard four-parameter fit to the data. Ki values are derived from IC50 values using the following formula, IC50=Ki(1+[S][…]), Eqn (1), where [S] is the concentration of substrate peptide in the reaction and KM is the Michaelis constant. See Gallinari et al., 1999, Biochem. 38:5620-32; Gallinari et al., 1998, J. Virol. 72:6758-69; and Taliani et al., 1996, Anal. Biochem. 240:60-67. ND means not determined.

[2] = molecular target: HCV NS3 protease genotype 3a (3A-1) (Hepatitis C virus genotype 3a, UniProt Q81258); assay: HCV NS3 protease time-resolved fluorescence (TRF) assay, genotype 3a; format: biochemical; conditions: Ki 3a
Procedure: as §1, §2, §3, §4

[3] = genotype 1b (BK) NS3 R155K, single value

SMILES	Ki [1, 3]	Ki [2]	Ki ([1]; first of two values printed in the cell (not explained))	Ki ([1]; second of two values printed in the cell (not explained))
C=C[C@@H]1C[C@]1(NC(=O)[C@@H]1C[C@@H]2CN1C(=O)[C@H](C(C)(C)C)NC(=O)O[C@@H]1C[C@H]1CCCCCc1c(nc3ccccc3c1OC1CCN(C)CC1)O2)C(=O)NS(=O)(=O)C1(C)CC1 [Example 210, (1aR,5S,8S,10R,22aR)-5-tert-butyl-N-[(1R,2S)-2-ethenyl-1-{[(1-methylcyclopropyl)sulfonyl]carbamoyl}cyclopropyl]-17-[(1-methylpiperidin-4-yl)oxy]-3,6-dioxo-1,1a,3,4,5,6,9,10,18,19,20,21,22,22a-tetradecahydro-8H-7,10-methanocyclopropa[18,19][1,10,3,6]dioxadiazacyclononadecino[11,12-b]quinoline-8-carboxamide]	0.046 nM	0.29 nM		
C=C[C@@H]1C[C@]1(NC(=O)[C@@H]1C[C@@H]2CN1C(=O)[C@H](C1CCCC1)NC(=O)O[C@@H]1CCC[C@H]1CCCCCc1c(nc3ccccc3c1OC)O2)C(=O)NS(=O)(=O)C1CC1 [Example 26, (3aR,7S,10S,12R,24aR)-7-cyclo pentyl-N-{(1R,2S)-1-[(cyclopropylsulfonyl)carbamoyl]-2-ethenylcyclopropyl}-19-methoxy-5,8-dioxo-1,2,3,3a,5,6,7,8,11,12,20,21,22,23,24,24a-hexadecahydro-10H-9,12-methanocyclopenta [18,19][1,10,3,6]dioxadiazacyclononadecino [11,12-b]quinoline-10-carboxamide]	0.33 nM	13 nM		
C=C[C@@H]1C[C@]1(NC(=O)[C@@H]1C[C@@H]2CN1C(=O)[C@H](C(C)(C)C)NC(=O)O[C@@H]1C[C@H]1CCCCCc1c(nc3ccccc3c1OC[C@@H]1CCN(C(=O)OC(C)(C)C)C1)O2)C(=O)NS(=O)(=O)C1(C)CC1 [Example 138, tert-butyl (3R)-3-({[(1aR,5S,8S,10R, 22aR)-5-tert-butyl-8-{[(1R,2S)-2-ethenyl-1-{[(1-methylcyclopropyl)sulfonyl]carbamoyl}cyclopropyl]carbamoyl}-3,6-dioxo-1,1a,3,4,5,6,9,10,18,19,20, 21,22,22a-tetradeca hydro-8H-7,10-methanocyclopropa [18,19][1,10,3,6]dioxadiazacyclononadecino[11,12-b]quinolin-17-yl]oxy}methyl)pyrrolidine-1-carboxylate]	0.63 nM	7 nM		
C=C[C@@H]1C[C@]1(NC(=O)[C@@H]1C[C@@H]2CN1C(=O)[C@H](C1CCCC1)NC(=O)O[C@@H]1CCC[C@H]1CC/C=C/Cc1c(nc3cccc(Cl)c3c1OC)O2)C(=O)NS(=O)(=O)C1CC1 [Example 10, (3aR,7S,10S,12R,21E,24aS)-18-chloro-7-cyclopentyl-N-{(1R,2S)-1-[(cyclopropylsulfonyl)carbamoyl]-2-ethenylcyclopropyl}-19-methoxy-5,8-dioxo-1,2,3,3a,5,6,7,8,11,12,20,23,24,24a-tetradecahydro-10H-9,12-methanocyclopenta [18,19][1,10,3,6]dioxadiazacyclononadecino [11,12-b]quinoline-10-carboxamide]	0.19 nM	11 nM		
C=C[C@@H]1C[C@]1(NC(=O)[C@@H]1C[C@@H]2CN1C(=O)[C@H](C1CCCCC1)NC(=O)O[C@@H]1C[C@H]1CCCCCc1c(nc3ccccc3c1OC1CCOCC1)O2)C(=O)NS(=O)(=O)C1(C)CC1 [Example 253, (1aR,5S,8S,10R,22aR)-5-cyclohexyl-N-[(1R,2S)-2-ethenyl-1-{[(1-methylcyclopropyl)sulfonyl]carbamoyl}cyclopropyl]-3,6-dioxo-17-(tetrahydro-2H-pyran-4-yloxy)-1,1a,3,4,5,6,9,10,18,19,20,21,22,22a-tetradecahydro-8H-7,10-methanocyclopropa[18,19][1,10,3,6]dioxadiazacyclononadecino[11,12-b]quinoline-8-carboxamide]		11 nM	0.026 nM	0.265 nM
C=C[C@@H]1C[C@]1(NC(=O)[C@@H]1C[C@@H]2CN1C(=O)[C@H](C(C)(C)C)NC(=O)O[C@@H]1C[C@H]1CCCCCc1c(nc3ccccc3c1OCCCN1CCNC(C(F)(F)F)C1)O2)C(=O)NS(=O)(=O)C1(C)CC1 (stereo partly drawn) [Example 205, (1aR,5S,8S,10R,22aR)-5-tert-butyl-N-[(1R,2S)-2-ethenyl-1-{[(1-methylcyclopropyl)sulfonyl]carbamoyl}cylcopropyl]-3,6-dioxo-17-{3-[3-(trifluoromethyl)piperazin-1-yl]propoxy}-1,1a,3,4,5,6,9,10,18, 19,20,21,22,22a-tetradecahydro-8H-7,10-methanocyclopropa[18,19][1,10,3,6] dioxadiazacyclononadecino[11,12-b] quinoline-8-carboxamide]	0.19 nM	1.9 nM		
C=C[C@@H]1C[C@]1(NC(=O)[C@@H]1C[C@@H]2CN1C(=O)[C@H](C(C)(C)C)NC(=O)O[C@@H]1C[C@H]1CCCCCc1c(nc3ccccc3c1OCC1CN(C(=O)OC(C)(C)C)C1)O2)C(=O)NS(=O)(=O)C1(C)CC1 [Example 142, tert-butyl 3-({[(1aR,5S,8S,10R, 22aR)-5-tert-butyl-8-{[(1R,2S)-2-ethenyl-1-{[(1-methylcyclopropyl)sulfonyl]carbamoyl}cyclopropyl]carbamoyl}-3,6-dioxo-1,1a,3,4,5,6,9,10,18,19,20,21,22,22a-tetradeca hydro-8H-7,10-methanocyclopropa[18,19][1,10,3,6]dioxadiazacyclononadecino [11,12-b]quinolin-17-yl]oxy}methyl) azetidine-1-carboxylate]	0.7 nM	15 nM		
CC[C@@H]1C[C@]1(NC(=O)[C@@H]1C[C@@H]2CN1C(=O)[C@H](C1CCCC1)NC(=O)OC1(C)CCCC1CCCCCc1c(nc3ccccc3c1O)O2)C(=O)NS(=O)(=O)C1CC1 (single isomer, unassigned) [Example 32]	0.54 nM	9.2 nM		
C=C[C@@H]1C[C@]1(NC(=O)[C@@H]1C[C@@H]2CN1C(=O)[C@H](C1CCCC1)NC(=O)O[C@]1(C)CCC[C@H]1CCCCCc1c(nc3ccccc3c1O)O2)C(=O)NS(=O)(=O)C1CC1 (single isomer, unassigned) [Example 29]	0.12 nM			
C=C[C@@H]1C[C@]1(NC(=O)[C@@H]1C[C@@H]2CN1C(=O)[C@H](C1CCCC1)NC(=O)O[C@]1(C)C[C@H]1CC/C=C/Cc1c(nc3ccccc3c1O)O2)C(=O)NS(=O)(=O)C1CC1 [Example 19, (1aR,5S,8S,10R,19E,22aR)-5-cyclopentyl-N-{(1R,2S)-1-[(cyclopropylsulfonyl)carbamoyl]-2-ethenylcyclopronyl}-17-hydroxy-1a-methyl-3,6-dioxo-1,1a,3,4,5,6,9,10,18,21,22,22a-dodecahydro-8H-7,10-methanocyclopropa[18,19][1,10,3,6]dioxadiazacyclononadecino[11,12-b]quinoline-8-carboxamide]	0.091 nM			
